22 compounds from US9611277B2 (Janssen Pharmaceutica NV, priority 2013, dated 2017) can be followed below.

In general, Ki refers to a dissociation constant, usually derived from enzyme kinetics or from competition with a known ligand.

For one assay, the target named is human orexin 2 receptor (Homo sapiens (Human), UniProt O43614). Briefly: Human orexin 2 receptor radioligand binding. To be noted: human orexin 2 receptor; averages of 2-20 runs; read-out: hOX2 Ki. In a few lines: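 Ki derived from one-site competition IC50 using predetermined Kd of [3H]-EMPA, triplicate points, 2-20 runs averaged. Binding done on homogenized HEK293 cells stably expressing human orexin 2 receptor, DMSO ≤0.1%, with 10 μM almorexant defining nonspecific binding; filtered, washed, scintillation counted.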
Chain of human orexin 2 receptor (O43614 whole entry): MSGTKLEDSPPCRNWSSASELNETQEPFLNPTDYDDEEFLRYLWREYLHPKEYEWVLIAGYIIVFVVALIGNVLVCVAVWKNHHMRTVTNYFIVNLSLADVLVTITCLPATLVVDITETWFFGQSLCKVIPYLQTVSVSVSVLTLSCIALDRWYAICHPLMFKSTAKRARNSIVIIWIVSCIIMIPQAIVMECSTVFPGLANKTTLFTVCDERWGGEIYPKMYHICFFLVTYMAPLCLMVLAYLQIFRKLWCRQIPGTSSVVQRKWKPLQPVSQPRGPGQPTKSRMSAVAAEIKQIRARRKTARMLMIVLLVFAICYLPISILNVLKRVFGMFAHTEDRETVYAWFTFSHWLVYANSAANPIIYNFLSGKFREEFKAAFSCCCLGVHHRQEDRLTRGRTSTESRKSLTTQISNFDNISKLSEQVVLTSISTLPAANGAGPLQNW

Another assay has as its target human orexin 1 receptor (Homo sapiens, UniProt O43613). Briefly: Human orexin 1 receptor radioligand binding. To be noted: human orexin 1 receptor; averages of 2-20 runs; read-out: hOX1 Ki. A digest of the protocol:
(§1)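 Ki values derive from one-site competition IC50s corrected with the radioligand's predetermined Kd, triplicates per run, averaged over 2-20 runs. Cell homogenates (rat or human OX1R) compete against [^3H]-thiazolyl-oxadiazolyl-pyrrolidine methanone in PBS; 10 μM almorexant sets nonspecific binding; scintillation counting after washing.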

The target of the next assay is rat orexin 1 receptor (Rattus norvegicus, UniProt P56718). Briefly: Rat orexin 1 receptor radioligand binding. Conditions: rat orexin 1 receptor; averages of 2-20 runs; read-out: rOX1 Ki. A digest of the protocol: as §1

Take `O=C(c1cc(F)ccc1-c1ncccn1)N1C[C@H]2C[C@@H](Nc3ccc(C(F)(F)F)cn3)[C@@H]1C2` [Example 58, (5-fluoro-2-(pyrimidin-2-yl)phenyl)((1S,4S,6R)-6-((5-(trifluoromethyl)pyridin-2-yl)amino)-2-azabicyclo[2.2.1]heptan-2-yl)methanone]: the inhibition constant (Ki) at human orexin 2 receptor was 193 nM; on human orexin 1 receptor it was 3 nM; at rat orexin 1 receptor, 5 nM.
For `O=C(c1cccc(F)c1-c1ncc(F)cn1)N1C[C@H]2C[C@@H](Nc3cnc(C(F)(F)F)cn3)[C@@H]1C2` [Example 204, (3-fluoro-2-(5-fluoropyrimidin-2-yl)phenyl)((1S,4S,6R)-6-((5-(trifluoromethyl)pyrazin-2-yl)amino)-2-azabicyclo[2.2.1]heptan-2-yl)methanone], in that order: 960 nM, 9 nM and 9 nM.
For `O=C(c1cccc(F)c1-c1ncccn1)N1C[C@H]2C[C@@H](Oc3ccc(C(F)(F)F)nn3)[C@@H]1C2` [Example 141, (3-fluoro-2-(pyrimidin-2-yl)phenyl)((1S,4R,6R)-6-((6-(trifluoromethyl)pyridazin-3-yl)oxy)-2-azabicyclo[2.2.1]heptan-2-yl)methanone], in that order: more than 10000 nM, 348 nM and 208 nM.
Turning to `O=C(c1ccccc1-n1nccn1)N1C[C@H]2C[C@@H](Oc3ncc(C(F)(F)F)cc3F)[C@@H]1C2` [Example 97, (2-(2H-1,2,3-triazol-2-yl)phenyl)((1S,4R,6R)-6-((3-fluoro-5-(trifluoromethyl)pyridin-2-yl)oxy)-2-azabicyclo[2.2.1]heptan-2-yl)methanone], the Ki on human orexin 2 receptor turned out to be 1100 nM; on human orexin 1 receptor, 15 nM; on rat orexin 1 receptor, 21 nM.
As for `COc1ccc(N[C@@H]2C[C@H]3C[C@@H]2N(C(=O)c2cccc(F)c2-c2ncccn2)C3)nc1` [Example 176, (3-fluoro-2-(pyrimidin-2-yl)phenyl)((1S,4S,6R)-6-((5-methoxypyridin-2-yl)amino)-2-azabicyclo[2.2.1]heptan-2-yl)methanone], the Ki on human orexin 2 receptor turned out to be 1300 nM; on human orexin 1 receptor, 52 nM; at rat orexin 1 receptor it was 56 nM.
Taken in the same sequence, the figures for `O=C(c1ccc(F)cc1-n1nccn1)N1C[C@H]2C[C@@H](Nc3ncc(C(F)(F)F)cn3)[C@@H]1C2` [Example 224, (4-fluoro-2-(2H-1,2,3-triazol-2-yl)phenyl)((1S,4S,6R)-6-((5-(trifluoromethyl)pyrimidin-2-yl)amino)-2-azabicyclo[2.2.1]heptan-2-yl)methanone] were 1900 nM, 33 nM and 37 nM.
Taken in the same sequence, the figures for `O=C(c1ccccc1-c1ncccn1)N1C[C@H]2C[C@@H](Nc3cnc(Cl)cn3)[C@@H]1C2` [Example 215, ((1S,4S,6R)-6-((5-chloropyrazin-2-yl)amino)-2-azabicyclo[2.2.1]heptan-2-yl)(2-(pyrimidin-2-yl)phenyl)methanone] were 435 nM, 13 nM and 12 nM.
Taken in the same sequence, the figures for `O=C(c1ccc(F)cc1-c1ncccn1)N1C[C@H]2C[C@@H](Nc3ccc(Cl)cn3)[C@@H]1C2` [Example 171, ((1S,4S,6R)-6-((5-chloropyridin-2-yl)amino)-2-azabicyclo[2.2.1]heptan-2-yl)(4-fluoro-2-(pyrimidin-2-yl)phenyl)methanone] were 1900 nM, 25 nM and 27 nM.
Take `Cc1cnc(C(=O)N2C[C@H]3C[C@@H](Nc4cnc(C(F)(F)F)cn4)[C@@H]2C3)c(-c2ncccn2)c1` [Example 190, (5-methyl-3-(pyrimidin-2-yl)pyridin-2-yl)((1S,4S,6R)-6-((5-(trifluoromethyl)pyrazin-2-yl)amino)-2-azabicyclo[2.2.1]heptan-2-yl)methanone]: the Ki on human orexin 2 receptor is more than 10000 nM; at human orexin 1 receptor, 12 nM; on rat orexin 1 receptor, 12 nM.
Take `O=C(c1cccc(F)c1-c1ncccn1)N1C[C@H]2C[C@@H](Oc3cnc(C(F)(F)F)cn3)[C@@H]1C2` [Example 126, (3-fluoro-2-(pyrimidin-2-yl)phenyl)((1S,4R,6R)-6-((5-(trifluoromethyl)pyrazin-2-yl)oxy)-2-azabicyclo[2.2.1]heptan-2-yl)methanone]: the inhibitory constant (Ki) worked out at 4200 nM at human orexin 2 receptor, 22 nM on human orexin 1 receptor and 27 nM on rat orexin 1 receptor.
Turning to `O=C(c1c(F)cccc1-c1ncccn1)N1C[C@H]2C[C@@H](Nc3cnc(C(F)(F)F)cn3)[C@@H]1C2` [Example 200, (2-fluoro-6-(pyrimidin-2-yl)phenyl)((1S,4S,6R)-6-((5-(trifluoromethyl)pyrazin-2-yl)amino)-2-azabicyclo[2.2.1]heptan-2-yl)methanone], the figures for the Ki at human orexin 2 receptor, on human orexin 1 receptor and on rat orexin 1 receptor were 240 nM, 6 nM and 7 nM, respectively.
For `COc1ccc(C(=O)N2C[C@H]3C[C@@H](Nc4cnc(C(F)(F)F)cn4)[C@@H]2C3)c(-n2nccn2)c1` [Example 197, (4-methoxy-2-(2H-1,2,3-triazol-2-yl)phenyl)((1S,4S,6R)-6-((5-(trifluoromethyl)pyrazin-2-yl)amino)-2-azabicyclo[2.2.1]heptan-2-yl)methanone], in that order: 9700 nM, 39 nM and 93 nM.
Taken in the same sequence, the figures for `O=C(c1ccc(F)cc1-n1nccn1)N1C[C@H]2C[C@@H](Oc3ccc(Br)cn3)[C@@H]1C2` [Example 107, ((1S,4R,6R)-6-((5-bromopyridin-2-yl)oxy)-2-azabicyclo[2.2.1]heptan-2-yl)(4-fluoro-2-(2H-1,2,3-triazol-2-yl)phenyl)methanone] were 1960 nM, 26 nM and 16 nM.
Turning to `O=C(c1ncccc1-c1ncccn1)N1C[C@H]2C[C@@H](Nc3cnc(C(F)(F)F)cn3)[C@@H]1C2` [Example 189, (3-(pyrimidin-2-yl)pyridin-2-yl)((1S,4S,6R)-6-((5-(trifluoromethyl)pyrazin-2-yl)amino)-2-azabicyclo[2.2.1]heptan-2-yl)methanone], the Ki on human orexin 2 receptor amounted to 678 nM; on human orexin 1 receptor it was 11 nM; on rat orexin 1 receptor, 14 nM.
For the compound `O=C(c1c(F)cccc1-c1ncccn1)N1C[C@H]2C[C@@H](Nc3ncc(C(F)(F)F)cn3)[C@@H]1C2` [Example 229, (2-fluoro-6-(pyrimidin-2-yl)phenyl)((1S,4S,6R)-6-((5-(trifluoromethyl)pyrimidin-2-yl)amino)-2-azabicyclo[2.2.1]heptan-2-yl)methanone], the inhibition constant Ki turned out to be 724 nM on human orexin 2 receptor, 11 nM on human orexin 1 receptor and 9 nM on rat orexin 1 receptor.
Taken in the same sequence, the figures for `O=C(c1c(F)cccc1-c1ncco1)N1C[C@H]2C[C@@H](Nc3ncc(C(F)(F)F)cn3)[C@@H]1C2` [Example 232, (2-fluoro-6-(oxazol-2-yl)phenyl)((1S,4S,6R)-6-((5-(trifluoromethyl)pyrimidin-2-yl)amino)-2-azabicyclo[2.2.1]heptan-2-yl)methanone] were 1350 nM, 25 nM and 24 nM.
Taken in the same sequence, the figures for `O=C(c1ccccc1-n1nccn1)N1C[C@H]2C[C@@H](Nc3ccc(C(F)F)cn3)[C@@H]1C2` [Example 173, (2-(2H-1,2,3-triazol-2-yl)phenyl)((1S,4S,6R)-6-((5-(difluoromethyl)pyridin-2-yl)amino)-2-azabicyclo[2.2.1]heptan-2-yl)methanone] were 264 nM, 33 nM and 55 nM.
For `O=C(c1c(F)cccc1-n1nccn1)N1C[C@H]2C[C@@H](Nc3cnc(C(F)(F)F)cn3)[C@@H]1C2` [Example 195, (2-fluoro-6-(2H-1,2,3-triazol-2-yl)phenyl)((1S,4S,6R)-6-((5-(trifluoromethyl)pyrazin-2-yl)amino)-2-azabicyclo[2.2.1]heptan-2-yl)methanone], in that order: 199 nM, 8 nM and 9 nM.
With `O=C(c1ccccc1-c1ncccn1)N1C[C@H]2C[C@@H](Nc3ncc(Cl)cn3)[C@@H]1C2` [Example 240, ((1S,4S,6R)-6-((5-chloropyrimidin-2-yl)amino)-2-azabicyclo[2.2.1]heptan-2-yl)(2-(pyrimidin-2-yl)phenyl)methanone], the Ki on human orexin 2 receptor worked out at 831 nM; on human orexin 1 receptor, 12 nM; at rat orexin 1 receptor it was 17 nM.
For `O=C(c1ccccc1-c1ncccn1)N1C[C@H]2C[C@@H](Oc3ccc(C(F)(F)F)cn3)[C@@H]1C2` [Example 297], in that order: 606 nM, 10 nM and 10 nM.
For `O=C(c1cc(F)ccc1-c1ncco1)N1C[C@H]2C[C@@H](Nc3cnc(C(F)(F)F)cn3)[C@@H]1C2` [Example 202, (5-fluoro-2-(oxazol-2-yl)phenyl)((1S,4S,6R)-6-((5-(trifluoromethyl)pyrazin-2-yl)amino)-2-azabicyclo[2.2.1]heptan-2-yl)methanone], in that order: 302 nM, 13 nM and 13 nM.
Taken in the same sequence, the figures for `O=C(c1cccc(F)c1-c1ncccn1)N1C[C@H]2C[C@@H](Nc3ccc(C(F)(F)F)nc3)[C@@H]1C2` [Example 247, (3-fluoro-2-(pyrimidin-2-yl)phenyl)((1S,4S,6R)-6-((6-(trifluoromethyl)pyridin-3-yl)amino)-2-azabicyclo[2.2.1]heptan-2-yl)methanone] were 939 nM, 31 nM and 26 nM.
